In US20260209152A1, “Substituted Hydroxystilbene Compounds and Derivatives, Synthesis and Uses Thereof” (Kynan Duke IP, LLC, priority 2019, published 2026):
“Also recorded” adds a separate entry of the source. Read-outs that look alike come from different tables or passages of the source.

Assays:
[1] = test system: Bladder RT-112; experiment: CellTiter Glo cell viability assay; type: cell-based, human; conditions: Homo sapiens
Protocol: (§1) 1.7*10^3 cells/well were seeded in quadruplicates in 96-well plate after plating. Drugs were added at 5 μM and 2-fold dilutions over 18 concentrations (0.000038146-5 […] range) to generate a dose-response curve. Cell growth was assessed on day 1, 3 and 5 after drug treatments using the CellTiter Glo Luminescence Cell Viability Assay (Promega) according to manufacturer's protocol. Thermo Scientific Varioskan LUX Multimode Microplate instrument was used for plate reading. Data are expressed as mean luminescence (arbitrary units) ±S.D.
(§2) Cell Viability Assays were employed to determine the concentration of Compound 1 (KYN-001) and analogues where the response is reduced by half. For each treatment of cancer cells, 1, 2, 5, 10 and 20 μM solutions of compounds were applied. GraphPad Prism 7 software was used to fit dose response curves. Relative Luminescence Units were plotted against the log values of the doses used and the nonlinear regression model was used for data analysis.
(§3) The protocol for cell proliferation was optimized for Compound 8 (KYN-119) to enable a more accurate assessment of its low IC50 value. In this protocol, 18 dosages (2 fold dilutions ranging from 0.000038146 to 5 μM) were applied to cells seeded in 96-well plates, and Luminescence was measured after 1, 3 and 5 days upon treatments.

[2] = test system: Kidney ACHN; experiment: CellTiter Glo cell viability assay; type: cell-based, human; conditions: Homo sapiens, ACHN, read-out: IC50
Protocol: as §1, §2, §3

[3] = test system: Pancreatic CAPAN-1; experiment: CellTiter Glo cell viability assay; type: cell-based, human; conditions: Homo sapiens, CAPAN-1, 72 h; Table 4: 3 Days of treatment; 18 2-fold dilutions 5-0.00003 μM; Average (1, 8) or single Exp A-D; read-out: IC50
Protocol: as §1, §2, §3

[4] = test system: Kidney A-498; experiment: CellTiter Glo cell viability assay; type: cell-based, human
Protocol: 1.7*10^3 cells/well were seeded in quadruplicates in 96-well plate after plating. […] Cell growth was assessed on day 1, 3 and 5 after drug treatments using the CellTiter Glo Luminescence Cell Viability Assay (Promega) according to manufacturer's protocol. Thermo Scientific Varioskan LUX Multimode Microplate instrument was used for plate reading. Data are expressed as mean luminescence (arbitrary units) ±S.D.
Cell Viability Assays were employed to determine the concentration of Compound 1 (KYN-001) and analogues where the response is reduced by half. […] GraphPad Prism 7 software was used to fit dose response curves. Relative Luminescence Units were plotted against the log values of the doses used and the nonlinear regression model was used for data analysis.
The protocol for cell proliferation was optimized for Compound 8 (KYN-119) to enable a more accurate assessment of its low IC50 value. […]

[5] = test system: Lung NCI-H1299; experiment: CellTiter Glo cell viability assay; type: cell-based, human; conditions: Homo sapiens, NCI-H1299, 72 h
Protocol: as §1, §2, §3

[6] = test system: Pancreatic MIA PaCa-2; experiment: CellTiter Glo cell viability assay; type: cell-based, human; conditions: Homo sapiens
Protocol: as §1, §2, §3
Day 3 upon treatment of MIA PaCa_2 pancreatic cancer cells, 24 h after plating (11 dilutions), as assessed by CellTiter Glow Assay.

[7] = test system: Cancer cells including pancreatic, bladder, kidney, colon, breast, lung, liver and osteosarcomas; experiment: CellTiter Glo cell viability assay, panel of cancer cell lines; type: cell-based, human; conditions: for Fold reduction in cancer cell viability inhibition vs 1 [KYN-001]: cell lines tested; for Cancer cell viability inhibition, statement in words: SAR discussion based on IC50 values in Tables 1 to 5, compared with 1 [KYN-001]
Protocol: Compounds 1 to 15 were evaluated and their effect on cancer growth examined in cell viability assays on multiple cancer types (Tables 1 to 5). Cancer cells including pancreatic, bladder, kidney, colon, breast, lung, liver and osteosarcomas obtained from ATCC (American Type Culture Collection) were authenticated before use by Short Tandem Repeat genomic analysis (Reid Y, Storts D, Riss T and Minor L. Authentication of Human Cell Lines by STR DNA Profiling Analysis. 2013 May 1. In: Markossian S, Sittampalam G S, Grossman A, et al., editors. Assay Guidance Manual. Bethesda (MD): Eli Lilly & Company and the National Center for Advancing Translational Sciences; 2004.). Experimental protocol for each cancer cell line was verified and optimized according to literature reports before use (Tables 1 to 3).
as §1, §2, §3

[8] = test system: Colon SW_480; experiment: CellTiter Glo cell viability assay; type: cell-based, human; conditions: Homo sapiens, SW480, 72 h; Day 3 upon drug treatment; 10 dosages 0.0001-20 μM; read-out: IC50
[9] = test system: Kidney CRL-1611; experiment: CellTiter Glo cell viability assay; type: cell-based; conditions: Homo sapiens, 72 h; Day 3 upon drug treatment; 10 dosages 0.0001-20 μM; read-out: IC50
Protocol: as §1, §2, §3

[10] = test system: Breast MDA-MB-231; experiment: CellTiter Glo cell viability assay; type: cell-based, human; conditions: Homo sapiens, read-out: IC50
Protocol: as §1, §2, §3

[11] = test system: Bladder 5637; experiment: CellTiter Glo cell viability assay; type: cell-based, human; conditions: Homo sapiens, 120 h; Day 5 upon drug treatment; 10 dosages 0.0001-20 μM (Compound 8: 18 dosages 0.000038146 to 5 μM); read-out: IC50
Protocol: as §1, §2, §3

[12] = test system: Colon HCT_116; experiment: CellTiter Glo cell viability assay; type: cell-based, human; conditions: Homo sapiens, HCT-116, 120 h; Day 5 upon drug treatment; 10 dosages 0.0001-20 μM (Compound 8: 18 dosages 0.000038146 to 5 μM); read-out: IC50
Protocol: as §1, §2, §3

[13] = RT-112, 72 h, Table 4: 3 Days of treatment, 18 2-fold dilutions 5-0.00003 μM, Average (1, 8) or single Exp A-D, read-out: IC50
[14] = Homo sapiens, A498, 72 h, Table 4: 3 Days of treatment, 18 2-fold dilutions 5-0.00003 μM, Average (1, 8) or single Exp A-D, read-out: IC50
[15] = Homo sapiens, A498, Table 5A: 11 dilutions 3-0.00001 μM, single experiments Exp E-K, read-out: IC50
[16] = Table 5A: 11 dilutions 3-0.00001 μM, single experiments Exp E-K, read-out: IC50
[17] = RT-112, 72 h, Day 3 upon drug treatment, 10 dosages 0.0001-20 μM, read-out: IC50
[18] = MIA PaCa-2, 72 h, Day 3 upon drug treatment, 10 dosages 0.0001-20 μM, read-out: IC50
[19] = RT-112, 120 h, Day 5 upon drug treatment, 10 dosages 0.0001-20 μM (Compound 8: 18 dosages 0.000038146 to 5 μM), read-out: IC50
[20] = MDA-MB-231, 120 h, Day 5 upon drug treatment, 10 dosages 0.0001-20 μM (Compound 8: 18 dosages 0.000038146 to 5 μM)
[21] = 120 h, Day 5 upon drug treatment, 10 dosages 0.0001-20 μM (Compound 8: 18 dosages 0.000038146 to 5 μM)
[22] = MIA PaCa-2, 120 h, Day 5 upon drug treatment, 10 dosages 0.0001-20 μM (Compound 8: 18 dosages 0.000038146 to 5 μM), read-out: IC50
[23] = MIA PaCa-2, Table 5A: 11 dilutions 3-0.00001 μM, single experiments Exp E-K, read-out: IC50

Row | IC50 [10, 20] | IC50 [12] | IC50 [2, 21] | IC50 [6, 22] | Structure (SMILES) | IC50 [11] | IC50 [1, 19] | Cancer cell viability inhibition, statement in words [7] | also measured
1 | 0.246 µM | 0.353 µM | 0.283 µM | 0.182 µM | COc1cc(/C=C/c2cc(O)cc(OC)c2CC=C(C)C)cc(C)c1O [Compound 17, (E)-4-(5-Hydroxy-3-methoxy-2-(3-methylbut-2-en-1-yl)styryl)-2-methoxy-6-methylphenol] | 0.104 µM | 0.115 µM | marginally less potent than the parent compound 1 | IC50 [4, 15]: 0.1 to 1 µM; IC50 [4, 16]: 0.142 µM; IC50 [6, 23]: 1.15 µM; Fold reduction in cancer cell viability inhibition vs 1 [KYN-001] [7]: approximately 3
2 | 0.155 µM | 0.627 µM | 0.281 µM | 0.185 µM | COc1cc(/C=C/c2cc(O)cc(OC)c2CC=C(C)C)ccc1NC(C)=O [Compound 29, (E)-N-(4-(5-hydroxy-3-methoxy-2-(3-methylbut-2-en-1-yl)styryl)-2-methoxyphenyl)acetamide] | 0.0674 µM | 0.0764 µM | marginally less potent than the parent compound 1 | 

Further lines, the molecule ahead of its results:

Row | Structure (SMILES) | IC50 [10, 20] | IC50 [12] | IC50 [2, 21] | IC50 [6, 22] | IC50 [11] | IC50 [1, 19] | Cancer cell viability inhibition, statement in words [7] | also measured
3 | COc1cc(C=Cc2cc(O)cc(OC(C)C)c2CC=C(C)C)ccc1O [Compound 10, 3-(4-Hydroxy-3-methoxystyryl)-5-isopropoxy-4-(3-methylbut-2-en-1-yl)phenol] |  |  |  |  |  |  |  | IC50 [1, 13]: 0.0256 µM; IC50 ([2]; 72 h, Table 4: 3 Days of treatment, 18 2-fold dilutions 5-0.00003 μM, Average (1, 8) or single Exp A-D): 0.0409 µM; IC50 [3]: 2.24 µM; IC50 [4, 14]: 0.0371 µM; IC50 [4, 15]: 0.1 to 1 µM; IC50 [4, 16]: 0.126 µM
4 | COc1cc(/C=C/c2cc(O)cc(OC(F)(F)F)c2CC=C(C)C)ccc1O [Compound 11, (E)-3-(4-hydroxy-3-methoxystyryl)-4-(3-methylbut-2-en-1-yl)-5-(trifluoromethoxy)phenol] |  |  |  |  |  |  |  | IC50 [1, 13]: 0.0392 µM; IC50 ([5]; Table 4: 3 Days of treatment, 18 2-fold dilutions 5-0.00003 μM, Average (1, 8) or single Exp A-D, read-out: IC50): 0.193 µM; IC50 [4, 14]: 0.104 µM; IC50 ([6]; MIA PaCa-2, 72 h, Table 4: 3 Days of treatment, 18 2-fold dilutions 5-0.00003 μM, Average (1, 8) or single Exp A-D, read-out: IC50): 0.665 µM
5 | CCOc1cc(C=Cc2cc(O)cc(OC)c2CC=C(C)C)ccc1O [Compound 12, 3-(3-Ethoxy-4-hydroxystyryl)-5-methoxy-4-(3-methylbut-2-en-1-yl)phenol] |  |  |  |  |  |  |  | IC50 ([1]; RT-112, 72 h): 0.347 µM; IC50 [5]: 0.827 µM; IC50 ([4]; Homo sapiens, A498, 72 h, Table 4: 3 Days of treatment, 18 2-fold dilutions 5-0.00003 μM, Average (1, 8) or single Exp A-D): 0.822 µM; IC50 ([6]; MIA PaCa-2): 1.09 µM; Fold reduction in cancer cell viability inhibition vs 1 [KYN-001] [7]: approximately 10
6 | CCc1cc(/C=C/c2cc(O)cc(OC)c2CC=C(C)C)ccc1O [Compound 13, (E)-3-(3-Ethyl-4-hydroxystyryl)-5-methoxy-4-(3-methylbut-2-en-1-yl)phenol] |  |  |  |  |  |  |  | IC50 [1, 17]: 0.949 µM; IC50 [8]: 26.5 µM; IC50 [9]: 2.12 µM; IC50 [6, 18]: 3 µM
7 | COc1cc(O)cc(/C=C/c2ccc(O)c(SC)c2)c1CC=C(C)C [Compound 14, (E)-3-(4-Hydroxy-3-(methylthio)styryl)-5-methoxy-4-(3-methylbut-2-en-1-yl)phenol] |  |  |  |  |  |  |  | IC50 [1, 17]: 1.33 µM; IC50 ([10]; MDA-MB-231, 72 h, Day 3 upon drug treatment, 10 dosages 0.0001-20 μM): ~10.6 µM; IC50 [9]: 2.96 µM; IC50 [6, 18]: 3.47 µM
8 | COc1cc(/C=C/c2cc(O)cc(OC)c2CC=C(C)C)ccc1N [Compound 23, (E)-3-(4-Amino-3-methoxystyryl)-5-methoxy-4-(3-methylbut-2-en-1-yl)phenol] | 0.138 µM | 0.474 µM | 0.26 µM | 0.18 µM | 0.0653 µM | 0.0682 µM | marginally less potent than the parent compound 1; also recorded: activity similar to but overall reduced | 
9 | COC(=O)CNc1ccc(/C=C/c2cc(O)cc(OC)c2CC=C(C)C)cc1OC [Compound 33, Methyl (E)-(4-(5-hydroxy-3-methoxy-2-(3-methylbut-2-en-1-yl)styryl)-2-methoxyphenyl)glycinate] | 0.169 µM | 0.68 µM | 2.84 µM | 0.0968 µM | 0.0859 µM | 0.0955 µM | marginally less potent than the parent compound 1 | IC50 [6, 23]: 2.04 µM
